Measurements taken from patent US12503438B2, “Compounds for the treatment of kinase-dependent disorders” (Exelixis, Inc., priority 2019, dated 2025).

What was measured:
[1] = target: Met (Homo sapiens, UniProt P08581); experiment: Met autophosphorylation ELISA in PC-3 cells; assay type: cell-based; design: endogenous in cells; host or cells: PC-3 prostate cancer cells (ATCC #CRL-1435); details: cellular activity, HGF-stimulated, phospho-Met ELISA, read-out: c-Met IC50
How it was run: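 PC-3 cells serum-starved 3 h, treated 1 h with 8-point compound series (0.3% DMSO), then stimulated with 100 ng/mL human HGF for 10 min. Lysate phospho-Met (panTyr) measured by sandwich ELISA; IC50 from 4-parameter logistic fit against DMSO and reference-inhibitor controls.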

[2] = target: T1, AXL (Homo sapiens, UniProt P30530); experiment: AXL autophosphorylation ELISA in A-172 cells; assay type: cell-based; details: cellular activity, Gas6-stimulated, phospho-AXL ELISA
T1 construct: endogenous in cells; host or cells: A-172 glioblastoma cells (ATCC #CRL-1620)
T1 sequence (P30530 26-894): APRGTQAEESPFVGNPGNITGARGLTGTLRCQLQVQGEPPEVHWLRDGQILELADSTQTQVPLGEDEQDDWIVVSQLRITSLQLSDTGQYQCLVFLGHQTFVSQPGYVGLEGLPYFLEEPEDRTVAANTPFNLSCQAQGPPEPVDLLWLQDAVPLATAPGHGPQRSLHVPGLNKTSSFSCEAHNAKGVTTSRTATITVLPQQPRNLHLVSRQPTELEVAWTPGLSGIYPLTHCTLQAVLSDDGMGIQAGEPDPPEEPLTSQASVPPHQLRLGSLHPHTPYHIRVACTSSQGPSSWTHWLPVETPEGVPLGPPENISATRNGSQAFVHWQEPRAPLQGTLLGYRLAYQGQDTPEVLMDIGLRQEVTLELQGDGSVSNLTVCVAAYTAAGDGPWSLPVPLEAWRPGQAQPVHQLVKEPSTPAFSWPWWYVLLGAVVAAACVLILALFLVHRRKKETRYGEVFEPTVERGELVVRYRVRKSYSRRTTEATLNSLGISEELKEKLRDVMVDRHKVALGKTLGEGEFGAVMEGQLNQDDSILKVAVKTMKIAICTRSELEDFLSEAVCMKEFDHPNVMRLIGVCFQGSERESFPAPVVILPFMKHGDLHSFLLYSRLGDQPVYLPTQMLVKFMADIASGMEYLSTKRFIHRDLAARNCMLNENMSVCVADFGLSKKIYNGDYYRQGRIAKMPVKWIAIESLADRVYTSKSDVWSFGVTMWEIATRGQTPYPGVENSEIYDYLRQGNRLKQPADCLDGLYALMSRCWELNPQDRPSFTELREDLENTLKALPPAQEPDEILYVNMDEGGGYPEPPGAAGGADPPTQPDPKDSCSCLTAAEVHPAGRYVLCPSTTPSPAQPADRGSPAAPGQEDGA
How it was run: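 Serum-starved (24 h) A-172 glioblastoma cells got an 8-point compound series (0.3% DMSO) for 1 h, then 1 μg/mL human Gas6 for 15 min. Lysate phospho-AXL quantified by ELISA against phospho-AXL standard, normalized to DMSO and reference-inhibitor controls; IC50 by 4-parameter logistic fit.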

Chain of Met (P08581 25-1390): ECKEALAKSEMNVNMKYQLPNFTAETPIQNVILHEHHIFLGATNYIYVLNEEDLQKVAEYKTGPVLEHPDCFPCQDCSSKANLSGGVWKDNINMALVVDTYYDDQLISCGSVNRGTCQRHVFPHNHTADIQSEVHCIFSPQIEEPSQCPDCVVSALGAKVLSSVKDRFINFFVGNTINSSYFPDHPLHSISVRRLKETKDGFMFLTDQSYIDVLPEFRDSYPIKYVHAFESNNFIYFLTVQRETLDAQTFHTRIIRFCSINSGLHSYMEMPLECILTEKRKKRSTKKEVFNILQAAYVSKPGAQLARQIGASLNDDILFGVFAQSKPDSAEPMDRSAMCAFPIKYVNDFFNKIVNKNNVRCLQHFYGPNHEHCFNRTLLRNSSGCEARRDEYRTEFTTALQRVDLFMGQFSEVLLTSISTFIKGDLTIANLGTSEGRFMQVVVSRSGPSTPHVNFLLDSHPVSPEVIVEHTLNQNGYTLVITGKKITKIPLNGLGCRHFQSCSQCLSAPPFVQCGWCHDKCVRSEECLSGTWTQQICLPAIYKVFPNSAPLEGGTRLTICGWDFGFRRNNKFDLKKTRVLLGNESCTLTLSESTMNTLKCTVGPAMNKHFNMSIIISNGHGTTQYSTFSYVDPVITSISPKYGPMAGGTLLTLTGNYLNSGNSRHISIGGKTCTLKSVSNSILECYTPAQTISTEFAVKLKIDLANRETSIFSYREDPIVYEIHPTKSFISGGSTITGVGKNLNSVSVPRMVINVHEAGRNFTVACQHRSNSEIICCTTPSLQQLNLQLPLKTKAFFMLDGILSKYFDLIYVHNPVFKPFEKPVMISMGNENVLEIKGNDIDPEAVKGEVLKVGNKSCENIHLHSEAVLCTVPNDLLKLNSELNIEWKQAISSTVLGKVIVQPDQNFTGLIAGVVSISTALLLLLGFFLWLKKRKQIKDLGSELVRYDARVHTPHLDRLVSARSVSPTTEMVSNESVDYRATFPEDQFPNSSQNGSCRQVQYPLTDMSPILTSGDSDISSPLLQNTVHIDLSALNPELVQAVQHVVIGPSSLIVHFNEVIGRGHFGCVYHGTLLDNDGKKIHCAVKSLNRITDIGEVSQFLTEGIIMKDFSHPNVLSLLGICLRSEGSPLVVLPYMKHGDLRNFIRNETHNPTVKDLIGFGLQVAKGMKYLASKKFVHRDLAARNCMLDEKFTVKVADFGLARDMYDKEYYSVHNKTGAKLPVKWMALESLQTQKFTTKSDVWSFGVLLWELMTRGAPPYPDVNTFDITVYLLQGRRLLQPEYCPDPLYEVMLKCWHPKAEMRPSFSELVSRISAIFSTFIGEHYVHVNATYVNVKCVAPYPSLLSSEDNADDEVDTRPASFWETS

SMILES	IC50 [1] [nM]	IC50 [2] [nM]
Cc1noc(C)c1-c1ccc2c(Oc3ccc(NC(=O)C4(C(=O)Nc5ccc(F)cc5)CC4)cc3)ccnc2c1 [Compound 53, 1-N-[4-[7-(3,5-Dimethyl-1,2-oxazol-4-yl)quinolin-4-yl]oxyphenyl]-1-N′-(4-fluorophenyl)cyclopropane-1,1-dicarboxamide]	100 to 300	100 to 300
Cn1nccc1-c1ccc2c(Oc3ccc(NC(=O)C4(C(=O)Nc5ccc(F)cc5)CC4)cc3)ccnc2c1 [Compound 54, 1-N′-(4-Fluorophenyl)-1-N-[4-[7-(2-methylpyrazol-3-yl)quinolin-4-yl]oxyphenyl]cyclopropane-1,1-dicarboxamide]	10 to 100	10 to 100
O=C(Nc1ccc(F)cc1)C1(C(=O)Nc2ccc(Oc3ccnc4cc(-c5cnoc5)ccc34)cc2)CC1 [Compound 57, 1-N′-(4-Fluorophenyl)-1-N-[4-[7-(1,2-oxazol-4-yl)quinolin-4-yl]oxyphenyl]cyclopropane-1,1-dicarboxamide]	10 to 100	≤ 10
CN1CCC(n2cc(-c3ccc4c(Oc5ccc(NC(=O)C6(C(=O)Nc7ccc(F)cc7)CC6)cc5)ccnc4c3)cn2)CC1 [Compound 61, 1-N′-(4-Fluorophenyl)-1-N-[4-[7-[1-(1-methylpiperidin-4-yl)pyrazol-4-yl]quinolin-4-yl]oxyphenyl]cyclopropane-1,1-dicarboxamide]	10 to 100	≤ 10
CC(=O)N1CCC(n2cc(-c3ccc4c(Oc5ccc(NC(=O)C6(C(=O)Nc7ccc(F)cc7)CC6)cc5)ccnc4c3)cn2)CC1 [Compound 62, 1-N-[4-[7-[1-(1-Acetylpiperidin-4-yl)pyrazol-4-yl]quinolin-4-yl]oxyphenyl]-1-N′-(4-fluorophenyl)cyclopropane-1,1-dicarboxamide]	10 to 100	≤ 10
O=C(Nc1ccc(F)cc1)C1(C(=O)Nc2ccc(Oc3ccnc4cc(-c5ncco5)ccc34)cc2)CC1 [Compound 66, 1-N′-(4-Fluorophenyl)-1-N-[4-[7-(1,3-oxazol-2-yl)quinolin-4-yl]oxyphenyl]cyclopropane-1,1-dicarboxamide]	10 to 100	10 to 100
O=C(Nc1ccc(F)cc1)C1(C(=O)Nc2ccc(Oc3ccnc4cc(-c5cn[nH]c5)ccc34)cc2)CC1 [Compound 67, 1-N′-(4-Fluorophenyl)-1-N-[4-[7-(1H-pyrazol-4-yl)quinolin-4-yl]oxyphenyl]cyclopropane-1,1-dicarboxamide]	≤ 10	≤ 10
Cn1cnc(-c2ccc3c(Oc4ccc(NC(=O)C5(C(=O)Nc6ccc(F)cc6)CC5)cc4)ccnc3c2)c1 [Compound 69, 1-N′-(4-Fluorophenyl)-1-N-[4-[7-(1-methylimidazol-4-yl)quinolin-4-yl]oxyphenyl]cyclopropane-1,1-dicarboxamide]	≤ 10	≤ 10
O=C(Nc1ccc(F)cc1)C1(C(=O)Nc2ccc(Oc3ccnc4cc(-c5cnc[nH]5)ccc34)cc2)CC1 [Compound 72, 1-N′-(4-Fluorophenyl)-1-N-[4-[7-(1H-imidazol-5-yl)quinolin-4-yl]oxyphenyl]cyclopropane-1,1-dicarboxamide]	≤ 10	10 to 100
O=C(Nc1ccc(F)cc1)C1(C(=O)Nc2ccc(Oc3ccnc4cc(-c5nnco5)ccc34)cc2)CC1 [Compound 73, 1-N′-(4-Fluorophenyl)-1-N-[4-[7-(1,3,4-oxadiazol-2-yl)quinolin-4-yl]oxyphenyl]cyclopropane-1,1-dicarboxamide]	10 to 100	10 to 100
O=C(Nc1ccc(F)cc1)C1(C(=O)Nc2ccc(Oc3ccnc4cc(-c5ncc[nH]5)ccc34)cc2)CC1 [Compound 74, 1-N′-(4-Fluorophenyl)-1-N-[4-[7-(1H-imidazol-2-yl)quinolin-4-yl]oxyphenyl]cyclopropane-1,1-dicarboxamide]	≤ 10	10 to 100
Cn1ccnc1-c1ccc2c(Oc3ccc(NC(=O)C4(C(=O)Nc5ccc(F)cc5)CC4)cc3)ccnc2c1 [Compound 75, 1-N′-(4-Fluorophenyl)-1-N-[4-[7-(1-methylimidazol-2-yl)quinolin-4-yl]oxyphenyl]cyclopropane-1,1-dicarboxamide]	10 to 100	10 to 100
CNC(=O)c1cc2c(Oc3ccc(NC(=O)C4(C(=O)Nc5ccc(F)cc5)CC4)cc3)ccnc2cc1-c1cnn(C)c1 [Compound 77, 1-N′-(4-Fluorophenyl)-1-N-[4-[6-(methylcarbamoyl)-7-(1-methylpyrazol-4-yl)quinolin-4-yl]oxyphenyl]cyclopropane-1,1-dicarboxamide]	10 to 100	10 to 100
Cc1cc2c(Oc3ccc(NC(=O)C4(C(=O)Nc5ccc(F)cc5)CC4)cc3)ccnc2cc1-c1cnn(C)c1 [Compound 78, 1-N′-(4-Fluorophenyl)-1-N-[4-[6-methyl-7-(1-methylpyrazol-4-yl)quinolin-4-yl]oxyphenyl]cyclopropane-1,1-dicarboxamide]	≤ 10	10 to 100
CS(=O)(=O)n1cc(-c2ccc3c(Oc4ccc(NC(=O)C5(C(=O)Nc6ccc(F)cc6)CC5)cc4)ccnc3c2)cn1 [Compound 79, 1-N′-(4-Fluorophenyl)-1-N-[4-[7-(1-methylsulfonylpyrazol-4-yl)quinolin-4-yl]oxyphenyl]cyclopropane-1,1-dicarboxamide]	10 to 100	≤ 10
CC1Cc2cc(F)ccc2N1C(=O)C1(C(=O)Nc2ccc(Oc3ccnc4cc(-c5cnn(C)c5)ccc34)cc2)CC1 (stereo not shown) [Compound 80, 1-(5-Fluoro-2-methyl-2,3-dihydroindole-1-carbonyl)-N-[4-[7-(1-methylpyrazol-4-yl)quinolin-4-yl]oxyphenyl]cyclopropane-1-carboxamide]	100 to 300	10 to 100

More lines, now with the values ahead:

IC50 [1] [nM]	IC50 [2] [nM]	SMILES
10 to 100	≤ 10	O=C(Nc1ccc(F)cc1)C1(C(=O)Nc2ccc(Oc3ccnc4cc(-c5cnn(C6CCNCC6)c5)ccc34)cc2)CC1 [Compound 60, 1-N′-(4-Fluorophenyl)-1-N-[4-[7-(1-piperidin-4-ylpyrazol-4-yl)quinolin-4-yl]oxyphenyl]cyclopropane-1,1-dicarboxamide]
> 300	> 300	C[Si](C)(C)C#Cc1ccc2c(Oc3ccc(NC(=O)C4(C(=O)Nc5ccc(F)cc5)CC4)cc3)ccnc2c1 [Compound 63, 1-N′-(4-Fluorophenyl)-1-N-[4-[7-(2-trimethylsilylethynyl)quinolin-4-yl]oxyphenyl]cyclopropane-1,1-dicarboxamide]
100 to 300	> 300	C#Cc1ccc2c(Oc3ccc(NC(=O)C4(C(=O)Nc5ccc(F)cc5)CC4)cc3)ccnc2c1 [Compound 64, 1-N-[4-(7-Ethynylquinolin-4-yl)oxyphenyl]-1-N′-(4-fluorophenyl)cyclopropane-1,1-dicarboxamide]
> 300	> 300	O=C(Nc1ccc(F)cc1)C1(C(=O)Nc2ccc(Oc3ccnc4cc(-c5cnn[nH]5)ccc34)cc2)CC1 [Compound 65, 1-N′-(4-Fluorophenyl)-1-N-[4-[7-(1H-triazol-5-yl)quinolin-4-yl]oxyphenyl]cyclopropane-1,1-dicarboxamide]
10 to 100	≤ 10	O=C(Nc1ccc(F)cc1)C1(C(=O)Nc2ccc(Oc3ccnc4cc(-c5ccn[nH]5)ccc34)cc2)CC1 [Compound 68, 1-N′-(4-Fluorophenyl)-1-N-[4-[7-(1H-pyrazol-5-yl)quinolin-4-yl]oxyphenyl]cyclopropane-1,1-dicarboxamide]
10 to 100	≤ 10	COc1cc2c(Oc3ccc(NC(=O)C4(C(=O)Nc5ccc(F)cc5)CC4)cc3)ccnc2cc1-c1cnn(C)c1 [Compound 76, 1-N′-(4-Fluorophenyl)-1-N-[4-[6-methoxy-7-(1-methylpyrazol-4-yl)quinolin-4-yl]oxyphenyl]cyclopropane-1,1-dicarboxamide]
10 to 100	10 to 100	Cn1cc(-c2ccc3c(Oc4ccc(NC(=O)C5(C(=O)N6CCc7cc(F)ccc76)CC5)cc4)ccnc3c2)cn1 [Compound 81, 1-(5-Fluoro-2,3-dihydroindole-1-carbonyl)-N-[4-[7-(1-methylpyrazol-4-yl)quinolin-4-yl]oxyphenyl]cyclopropane-1-carboxamide]
